Experimental data reported in publication PMC5612938, “A multiple biomarker assay for quality assessment of botanical drugs using a versatile microfluidic chip” (Scientific Reports, 2017).
Marks after values point to notes of the source that are not given here.

How the values were obtained:
[1] = biological target: T1, Thrombin (from human plasma) (Homo sapiens, UniProt P00734); assay: on-chip thrombin inhibition assay (S-2238 hydrolysis, absorbance 405 nm); type: biochemical; design: key to IC50 (μM) or inhibition rate: /: No obvious inhibition observed
T1 construct: Thrombin (from human plasma); purchased Sigma-Aldrich; host or cells: human plasma
Procedure: To enhance the performance of the on-chip assay, experimental parameters such as concentrations of enzymes and substrates, substrate reaction time, and incubation time of samples and enzymes were stepwise optimized. The activity of thrombin was determined by measuring the hydrolysis of chromogenic substrate S-2238 (HD-Phe-Pip-Arg-pNA) at 405 nm. As depicted in Fig. 2a, the absorbance increased rapidly along with the elevated concentrations of thrombin, while it reached a plateau at 0.5 U/mL. […] Moreover, it was clear from Fig. 2d that the maximum inhibitory effect of QSYQ sample (I1 of Table 1 in this assay) on thrombin was observed after 60 min of incubation. Therefore, to achieve favorable response and prevent signal saturation, optimal assay conditions for thrombin were determined to be 0.2 U/mL, 0.31 mM, 30 min and 60 min for the final concentrations of thrombin and S-2238, substrate reaction time and incubation time, respectively. […] In this assay, the concentrations of ACE and FAPGG were finally set at 0.027 U/mL and 0.72 mM, where the background value was lower and the reaction time was relatively shorter (30 min).
The optimized protocol was first applied to assess the quality of 11 batches of QSYQ intermediates (Table 1). Enzyme inhibition (in percentages) was employed as an indicator of drug quality and calculated according to the following equations: thrombin inhibition (%) = [1 − (AQSYQ/Ablank)] × 100; ACE inhibition (%) = [1 − (ΔAQSYQ/ΔAblank)] × 100; where AQSYQ and Ablank were the absorbance of the test sample and the blank sample after the enzymatic reaction (the background value was subtracted), and ΔAQSYQ and ΔAblank were the absorbance decrease between 0 min and 30 min of the samples. A scatter plot was generated to display the inhibition result of thrombin and ACE simultaneously. […] Moreover, artificial abnormal samples I6, I7 and I8, each with one abnormal (pre-extracted) herb, presented relatively lower inhibitions compared with I1.
Thrombin (from human plasma), ACE (from rabbit lung), FAPGG and captopril were purchased from Sigma-Aldrich (St. Louis, USA). S-2238 was obtained from Aglyco (Beijing, China). AEBSF-HCl was purchased from Selleckchem (Houston, USA). Trizma base (Tris) was obtained from Sangon Biotech (Shanghai, China) and dimethyl sulfoxide (DMSO) from J&K Scientific (Beijing, China). All other chemicals were purchased from Sinopharm Chemical (Shanghai, China) unless otherwise indicated. 0.2 M Phosphate buffer (PB, pH 6.5), and 50 mM Tris-HCl buffer (200 mM NaCl, pH 8.3) were prepared as assay buffers for thrombin and ACE, respectively.
MBs (10 mg/mL) were diluted 10 times in PB or Tris-HCl buffer, and 10 μL of the diluted MBs (1 mg/mL) were injected into one channel of the chip using a syringe infusion pump (Harvard Apparatus, USA) and retained by an external magnet. Then, 10 μL of thrombin or ACE solution was added and incubated with MBs for two hours at room temperature to form enzyme-MB complexes. The magnet was manually controlled to move MBs back and forth to enhance the ratio of reaction. Subsequently, MBs were washed twice in assay buffer and magnetically transferred to the other channel through the fluidic bridge, whose opening and closing was controlled by a pneumatic valve. Next, 10 μL of sample solutions of tested drug and 10 μL of enzymatic substrate were sequentially infused to the channel by the pump and incubated with the enzyme. When the enzymatic reaction was finished, the MBs were retained in the channel, and air was injected into the channel from the inlet using a syringe to push all the reacted solution to a 384-well plate. The absorbance of the solution was then monitored at 405 nm (for S-2238) or 340 nm (for FAPGG) using an Infinite F200 spectrophotometer (Tecan, Männedorf, Switzerland). Moreover, after detection, the reaction channel was washed three times by assay buffer to remove unbound constituents. […]

[2] = biological target: T1, Thrombin (from human plasma); assay: on-chip affinity screening, binding degree by LC-MS peak area vs protein-free control (thrombin); details: for thrombin; [(As − Ac)/As] × 100, sample vs protein-free control, EIC peak area
Excerpt: In addition to quality assessment, the microfluidic chip can also function as “affinity chromatography” to identify bioactive constituents from botanical drugs in a convenient and efficient manner. After the bioassay, the bound phytochemicals were dissociated from the enzymes and accurately identified by LC-MS. The material used for the chambers in microfluidic system, polydimethylsiloxane (PDMS), is apt to adsorb small molecules nonspecifically, thus a protein-free control was applied to reflect the degree of nonspecific binding of compounds to the chip. Peak areas were obtained from the extracted ion chromatography (EIC) in an ion-trap mass spectrometry (IT-MS), and binding degree (binding degree % = [(As − Ac)/As] × 100, where As and Ac were the peak area in the sample and control, respectively) was calculated to indicate binding specificity. […] All these peaks were unambiguously confirmed via comparisons with chemical standards in terms of retention time and mass spectra (Table 2), and five thrombin inhibitors (danshensu, salvianolic acid B, salvianolic acid C, rosmarinic acid and ginsenoside Rg1) and six ACE inhibitors (astragaloside IV, ononin, formononetin, calycosin, danshensu and salvianolic acid B) were preliminarily identified. […] Enzyme inhibition assays of these hit compounds were then performed to verify the screening results. […] Compounds showing an inhibition rate over 70% were subjected to IC50 measurement.
MBs (10 mg/mL) were diluted 10 times in PB or Tris-HCl buffer, and 10 μL of the diluted MBs (1 mg/mL) were injected into one channel of the chip using a syringe infusion pump (Harvard Apparatus, USA) and retained by an external magnet. Then, 10 μL of thrombin or ACE solution was added and incubated with MBs for two hours at room temperature to form enzyme-MB complexes. The magnet was manually controlled to move MBs back and forth to enhance the ratio of reaction. Subsequently, MBs were washed twice in assay buffer and magnetically transferred to the other channel through the fluidic bridge, whose opening and closing was controlled by a pneumatic valve. Next, 10 μL of sample solutions of tested drug and 10 μL of enzymatic substrate were sequentially infused to the channel by the pump and incubated with the enzyme. When the enzymatic reaction was finished, the MBs were retained in the channel, and air was injected into the channel from the inlet using a syringe to push all the reacted solution to a 384-well plate. The absorbance of the solution was then monitored at 405 nm (for S-2238) or 340 nm (for FAPGG) using an Infinite F200 spectrophotometer (Tecan, Männedorf, Switzerland). Moreover, after detection, the reaction channel was washed three times by assay buffer to remove unbound constituents. 20 μL of 80% aqueous methanol was then injected and incubated with MBs for one hour to dissociate the bound constituents. The resulting solutions of replicates were combined, evaporated by a centrifugal evaporator, reconstituted in 80% aqueous methanol, centrifuged at 10,000 rpm for 10 min, and analyzed by LC-MS for chemical identification.
An Agilent 1100 HPLC system (Agilent Technologies, Waldbronn, Germany) coupled with an LCQ Deca XP^plus IT-MS (Thermo Finnigan, San Jose, CA, USA) equipped with an electrospray ionization (ESI) interface was employed for structure elucidation of the bounded constituents. […]

Row | Structure (SMILES) | IC50 (μM) or inhibition rate ([1]; for thrombin, symbol / = no obvious inhibition) | Binding degree (%) [2] | thrombin inhibition (in words) ([1]; at tested concentrations) | IC50 ([1]; for thrombin)
1 | CC(C)=CCC[C@](C)(O[C@@H]1O[C@H](CO)[C@@H](O)[C@H](O)[C@H]1O)[C@H]1CC[C@]2(C)[C@@H]1[C@H](O)C[C@@H]1[C@@]3(C)CC[C@H](O)C(C)(C)[C@@H]3[C@@H](O[C@@H]3O[C@H](CO)[C@@H](O)[C@H](O)[C@H]3O)C[C@]12C [Ginsenoside Rg1] | /^g | 20.6^c % | – | –
2 | O=C(/C=C/c1ccc(O)c(O)c1)O[C@H](Cc1ccc(O)c(O)c1)C(=O)O [Rosmarinic acid] | – | 67.4^c % | good thrombin inhibitions | 92 µM
